Reference: patent US20250161338A1, “Compounds for Anti-aging Intervention” (AGENCY FOR SCIENCE, TECHNOLOGY AND RESEARCH, priority 2022, published 2025)
Where a name gives a salt, the structure may show the parent alone.

What was measured:
[1] = tested on: prototrophic yeast strain (CEN.PK113-7D); test: Propidium iodide fluorescence-based CLS method in yeast (incl. high-throughput screening); format: cell-based, Saccharomyces cerevisiae; settings: for Yeast CLS increase: Yes/No call of the screen;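 as to PI intensity: untreated reference is eight DMSO and water control wells per plate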
In short: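 CEN.PK113-7D aged in SD medium at 30 °C with compounds (rapamycin 0–10 nM; sugars 0–8 mM; screen at single concentrations). At each age point cells were stained with 5 μg/mL PI for 15 min; fluorescence was normalized to OD600, background-subtracted, and survival scaled against boiled-cell control.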

[2] = tested on: prototrophic yeast strain (CEN.PK113-7D); test: Yeast outgrowth in YPD liquid medium (CLS of aged cells); format: cell-based, Saccharomyces cerevisiae; settings: age point day 14
In short: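 Cultures aged at 30 °C in SD medium with double-diluted rapamycin (0–10 nM) or sugars/polyols (0–8 mM). On day 14, 3 µL of culture was transferred into 200 µL YPD and outgrowth read as OD600. Survival expressed relative to day 1 outgrowth (100%).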

[3] = concentration tested 100 μM, solvent DMSO or water, chronological age point Day 7 (72 h growth = Day 1), lower = more survival
[4] = concentration tested 100 μM, OD600 nm after 24 h in YPD at 30° C.
[5] = concentration tested 30 μg/mL, solvent water, age point Day 7
[6] = concentration tested 30 μg/mL, OD600 nm after 24 h in YPD

Compound | Yeast CLS increase ([1]; concentration tested 100 μM) | PI intensity [1, 3] | Outgrowth [2, 4] | Yeast CLS increase ([1]; concentration tested 30 μg/mL) | PI intensity [1, 5] | Outgrowth [2, 6]
C[C@](N)(Cc1ccc(O)cc1)C(=O)O [Metyrosine, reference compound] | No | 76,947.2 | 0.1 |  |  | 
CN(C)c1ccc(O)c2c1C[C@H]1C[C@H]3[C@H](N(C)C)C(O)=C(C(N)=O)C(=O)[C@@]3(O)C(O)=C1C2=O [Minocycline (hydrochloride), reference compound] |  | 71,078.2 | 0.1 |  |  | 
C/C(=C\C(=O)OCCCCCCCCC(=O)O)C[C@@H]1OC[C@H](C[C@@H]2O[C@H]2[C@@H](C)[C@H](C)O)[C@@H](O)[C@H]1O [Mupirocin, reference compound] | No | 68,477.7 | 0.1 |  |  | 
CN(C)c1nc2c(ncn2[C@@H]2O[C@H](CO)[C@@H](O)[C@H]2O)c(=O)[nH]1 [N2,N2-Dimethylguanosine] | No | 65,619.9 | 0.1 |  |  | 
CC(=O)N[C@@H](Cc1ccc(O)cc1)C(=O)O [N-Acetyl-L-tyrosine] | No | 57,322.5 | 0.1 |  |  | 
O=C1N[C@@H]2C(=C[C@H](O)[C@@H](O)[C@H]2O)c2cc3c(c(O)c21)OCO3 [Narciclasine] | No | 67,161.8 | 0.1 |  |  | 
CC(C)(O)CCc1c(O)cc(O)c2c(=O)c(O)c(-c3ccc(O)cc3)oc12 [Noricaritin] | No | 77,179.8 | 0.1 |  |  | 
Cn1cc(C(N)=O)ccc1=O [Nudifloramide] | No | 65,023.3 | 0.1 |  |  | 
CCCCCCCCCCCCCCC(=O)O [Pentadecanoic acid] | No | 75,173.9 | 0.1 |  |  | 
CC(O)Cn1cnc2c1c(=O)n(C)c(=O)n2C (centres unmarked) [Proxyphylline, reference compound] | No | 72,232.1 | 0.1 |  |  | 
c1ncc2[nH]cnc2n1 [Purine] | No | 53,185.1 | 0.1 |  |  | 
Cl.Cl.[O-][S+]1c2ccccc2N=C(N2CCN(CCOCCO)CC2)c2ccccc21 (centres unmarked) [Quetiapine sulfoxide (dihydrochloride)] | No | 68,761.6 | 0.1 |  |  | 
C=C[C@H]1C[N@@]2CC[C@H]1C[C@H]2[C@H](O)c1ccnc2ccc(OC)cc12 [Quinine (hydrochloride dihydrate), reference compound] | No |  | 0.1 |  |  | 
CO[C@H]1C[C@@H]2CC[C@@H](C)[C@@](O)(O2)C(=O)C(=O)N2CCCC[C@H]2C(=O)O[C@H]([C@H](C)C[C@@H]2CC[C@@H](O)[C@H](OC)C2)CC(=O)[C@H](C)/C=C(\C)[C@@H](O)[C@@H](OC)C(=O)[C@H](C)C[C@H](C)/C=C/C=C/C=C/1C [Rapamycin, reference compound] |  | 21,460.5 | 1.3 |  |  | 
CC1=C(/C=C/C(C)=C/C=C/C(C)=C/C(=O)O)C(C)(C)CCC1 [Retinoic acid, reference compound] |  | 85,242.6 | 0.1 |  |  | 
CC[C@H]1CN2CC[C@]3(C(=O)Nc4ccccc43)[C@@H]2C[C@@H]1/C(=C\OC)C(=O)OC [Rhynchophylline] | No | 55,562.5 | 0.1 |  |  | 
CO[C@H]1/C=C/O[C@@]2(C)Oc3c(C)c([O-])c4c(O)c(cc(O)c4c3C2=O)NC(=O)/C(C)=C\C=C\[C@H](C)[C@H](O)[C@@H](C)[C@@H](O)[C@@H](C)[C@H](OC(C)=O)[C@@H]1C.[Na+] [Rifamycin (sodium), reference compound] | Yes | 39,446.0 | 0.6 |  |  | 
C[C@H]1CNCCCN1S(=O)(=O)c1cccc2cncc(F)c12 [Ripasudil, reference compound] | No | 77,962.0 | 0.1 |  |  | 
O=C(O)/C=C/CCCCCCCO [Royal Jelly acid] | No | 65,406.1 | 0.1 |  |  | 
CC[C@@]1(O)C(=O)OCc2c1cc1n(c2=O)Cc2cc3c([N+](=O)[O-])cccc3nc2-1 [Rubitecan] | No | 57,075.3 | 0.1 |  |  | 
COc1cc2c(c(OC)c1OC)-c1c(cc3c(c1OC)OCO3)C[C@H](C)[C@@](C)(O)C2 [Schisandrol B] | No | 80,051.7 | 0.1 |  |  | 
C[Se]CC[C@H](N)C(=O)O [Selenomethionine] | Yes | 29,837.8 | 1.2 |  |  | 
CN[C@@H]1C[C@H]2O[C@@](C)([C@@H]1OC)n1c3ccccc3c3c4c(c5c6ccccc6n2c5c31)C(=O)NC4 [Staurosporine] | No | 67,250.9 | 0.1 |  |  | 
C[C@H](Cn1cnc2c(N)ncnc21)OCP(=O)(O)O.O [Tenofovir (hydrate), reference compound] | No | 76,065.0 | 0.1 |  |  | 
CC(C)N1CCN(c2ccc(OCC3COC(Cn4cncn4)(c4ccc(Cl)cc4Cl)O3)cc2)CC1 (centres unmarked) [Terconazole, reference compound] | No | 72,350.0 | 0.1 |  |  | 
Cc1nc(C)c(C)nc1C [Tetramethylpyrazine] | No | 62,003.6 | 0.1 |  |  | 

Compound | Yeast CLS increase ([1]; concentration tested 100 μM) | PI intensity [1, 3] | Outgrowth [2, 4] | Yeast CLS increase ([1]; concentration tested 30 μg/mL) | PI intensity [1, 5] | Outgrowth [2, 6]
Cc1ccc(C(C)C)c(O)c1 [Thymol] | No | 61,503.8 | 0.1 |  |  | 
O=C(O)CCCCCCCCCCCC(=O)O [Tridecanedioic acid] | No | 80,407.7 | 0.1 |  |  | 
O=c1ccn([C@@H]2O[C@H](CO)[C@@H](O)[C@H]2O)c(=O)[nH]1 [Uridine] | No | 84,894.9 | 0.1 |  |  | 
O[C@H]([C@H](O)[C@@H]1CO1)[C@H]1CO1 [VAL-083] | No | 63,325.5 | 0.1 |  |  | 
COc1cc(C(=O)O)ccc1O [Vanillic acid] | No | 64,546.4 | 0.1 |  |  | 
COc1cc(O)c(C(C)=O)c(OC)c1 [Xanthoxylin] | No | 70,352.1 | 0.1 |  |  | 
CCCCC[C@H](O)CC(=O)CCc1ccc(O)c(OC)c1 [[6]-Gingerol] | No | 61,395.3 | 0.1 |  |  | 
N#CCCN [β-Aminopropionitrile] | No | 65,865.6 | 0.1 |  |  | 
CC(=O)O[C@H]1CC[C@H]2[C@@H]3CCc4cc(O)ccc4[C@H]3CC[C@]12C [β-Estradiol 17-acetate] | Yes | 34,621.0 | 0.5 |  |  | 
CC1(C)CCC2=C(O1)c1ccccc1C(=O)C2=O [β-Lapachone] | No | 67,892.9 | 0.1 |  |  | 
Amarogentin | No | 70,083.5 | 0.1 |  |  | 
Aprotinin | No | 70,144.6 | 0.1 |  |  | 
Catechin | No | 63,589.5 | 0.1 |  |  | 
Chondroitin (sulfate) |  |  |  | No | 75,572.6 | 0.1
Cisatracurium (besylate) [reference compound] | No | 75,862.3 | 0.1 |  |  | 
Escin | No | 70,495.1 | 0.1 |  |  | 
Estramustine (phosphate sodium) [reference compound] | No | 77,514.0 | 0.2 |  |  | 
Estrone sulfate (potassium) | No | 54,751.8 | 0.1 |  |  | 
Gentamicin (sulfate) [reference compound] |  |  |  | No | 73,296.2 | 0.1
Gramicidin [reference compound] | No | 79,922.3 | 0.1 |  |  | 
Heparin (Lithium salt) [reference compound] |  |  |  | No | 77,829.1 | 0.1
Heparin (sodium salt) (MW 15 kDa) [reference compound] |  |  |  | No | 64,969.0 | 0.1
Hyaluronidase |  |  |  | No | 78,406.7 | 0.1
Melanin | Yes | 39,360.1 | 1.0 |  |  | 
Polidocanol [reference compound] |  |  |  | No | 74,745.5 | 0.1
Schisantherin B | No | 68,765.7 | 0.1 |  |  | 
